Earlier results, collected in patent US20020102214A1, “Paramagnetic material-containing magnetic resonance external marker or calibration composition” (NYCOMED IMAGING AS., priority 1996, published 2002).

Conditions: at MRI fields, between 20° C. to 35° C., based on relaxivity data

O=C([O-])CN(CCN(CC(=O)[O-])CC(=O)O)CCN(CC(=O)[O-])CC(=O)O.[Gd+3] [GdDTPA]
variation of signal intensity with temperature: about 20%
